What was measured:
NAAA = details: cited from earlier work
rat NAAA = biological target: T1, rat NAAA (Rattus norvegicus, UniProt Q5KTC7); test: NAAA enzymatic assay (recombinant rNAAA protein, LC/MS); format: biochemical; details: for IC50: IC50 ± S.E.M., triplicate, 25 µM heptadecenoylethanolamide, pH 5.0;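 for all read-outs here: reaction product measured by LC/MS using positive APCI ionization with MRM monitoring, quantified from chromatographic peak areas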
T1 construct: made in house; host or cells: HEK293 cells stably overexpressing rat NAAA (HEK293-rNAAA), a gift from D. Piomelli; crude 800 x g supernatant of sonicated cells
T1 sequence (Q5KTC7 34-362): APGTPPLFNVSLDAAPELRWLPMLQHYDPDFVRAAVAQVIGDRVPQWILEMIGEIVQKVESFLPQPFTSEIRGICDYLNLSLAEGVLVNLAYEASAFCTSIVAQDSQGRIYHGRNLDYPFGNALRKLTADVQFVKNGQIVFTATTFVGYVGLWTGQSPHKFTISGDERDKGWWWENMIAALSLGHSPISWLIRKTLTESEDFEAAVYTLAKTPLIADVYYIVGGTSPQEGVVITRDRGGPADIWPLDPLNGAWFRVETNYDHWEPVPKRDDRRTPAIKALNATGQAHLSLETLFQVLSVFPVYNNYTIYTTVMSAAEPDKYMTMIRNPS
Protocol: (§1) HEK293-rNAAA or HEK293-rFAAH cells were harvested, washed with PBS, sonicated in 20 mM Tris-HCl (pH 7.5) containing 0.32 M sucrose, and centrifuged at 800 × g for 15 min at 4°C. The supernatants were collected and protein concentrations were measured by BCA protein assay kit (Pierce, Shanghai, China). […] The reactions were terminated by adding 0.2 mL methanol containing 1 nmol heptadecanoic acid and analyzed in LC/MS.
(§2) We use an Agilent 1200-LC system coupled to a 3200Q TRAP-MS detector equipped with an ESI interface (Agilent Technologies, Shanghai, China). […] The column temperature was set at 40°C. […] Mass spectrometer (MS) detection was ionized by positive-ion atmospheric pressure chemical ionization mode (APCI^+) and monitored in MRM mode. […] Quantifications were calculated at chromatographic peak areas by using Analyst® version 1.4.1. software (Applied Biosystems).

rat FAAH = biological target: T2, rat FAAH (Rattus norvegicus, UniProt P97612); test: FAAH enzymatic assay (recombinant rFAAH protein, LC/MS); format: biochemical; details: for IC50: IC50 ± S.E.M., triplicate, 25 µM anandamide, pH 8.0
T2 construct: made in house; host or cells: HEK293 cells stably overexpressing rat FAAH (HEK293-rFAAH), a gift from D. Piomelli; crude cell extract
T2 sequence (P97612 1-579): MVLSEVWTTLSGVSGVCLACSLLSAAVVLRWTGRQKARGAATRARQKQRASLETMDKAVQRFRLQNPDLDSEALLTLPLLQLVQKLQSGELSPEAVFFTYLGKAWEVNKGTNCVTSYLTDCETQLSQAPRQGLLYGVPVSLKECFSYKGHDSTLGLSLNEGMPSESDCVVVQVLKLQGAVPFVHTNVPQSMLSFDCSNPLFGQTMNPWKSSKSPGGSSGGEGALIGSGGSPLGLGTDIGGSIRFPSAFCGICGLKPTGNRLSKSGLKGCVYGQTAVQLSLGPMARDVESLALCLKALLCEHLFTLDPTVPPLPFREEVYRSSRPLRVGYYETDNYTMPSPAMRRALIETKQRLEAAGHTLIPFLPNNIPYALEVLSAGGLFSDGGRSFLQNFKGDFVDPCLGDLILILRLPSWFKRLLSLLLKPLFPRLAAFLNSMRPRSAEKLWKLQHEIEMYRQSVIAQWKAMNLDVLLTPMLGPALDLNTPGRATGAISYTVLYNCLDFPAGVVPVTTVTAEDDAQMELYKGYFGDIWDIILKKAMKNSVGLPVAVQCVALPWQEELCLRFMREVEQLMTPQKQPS
Protocol: as §1, §2

Structure (SMILES)	IC50 (rat NAAA)	IC50 (rat FAAH)	inhibition ability on NAAA activity (in words) (rat NAAA)	inhibition ability on FAAH activity (in words) (rat FAAH)	melting point	potency as NAAA inhibitor relative to CCP (NAAA)	mode of NAAA inhibition (NAAA)
O=C(CCc1ccccc1)N[C@H]1COC1=O [(S)-OOPP, (S)-N-(2-oxo-3-oxetanyl)-3-phenylpropionamide]						about 10 fold	
CCCCCCCCCCCCCCCNC(=O)C1CCCCC1 [CCP, N-Cyclohexanecarbonylpentadecylamine]							reversible and non-competitive
CCCCCCCCCCCCCCCC(=O)N1CCCCC1 [Compound 3, Pentadecanyl–carbonyl piperidine]	> 100 µM	> 100 µM	complete loss of the inhibition ability	complete loss of the inhibition ability			
CCCCCCCCCCCCCCCC(=O)n1cccc1 [Compound 6, 1–Pentadecanyl–carbonyl pyrrole]	> 100 µM	> 100 µM	complete loss of the inhibition ability	complete loss of the inhibition ability	57.9 to 60.2 °C		
O=C(Cc1ccccc1)N1CCCC1 [Compound 7, 1–Benzyl–carbonyl pyrrolidine]	> 100 µM	> 100 µM					
O=C(CCc1ccccc1)N1CCCC1 [Compound 8, 1–(2–Phenylethyl)–carbonyl pyrrolidine]	> 100 µM	> 100 µM					
O=C(CCCc1ccccc1)N1CCCC1 [Compound 9, 1–(3–Phenylpropanyl)–carbonyl pyrrolidine]	> 100 µM	> 100 µM					
O=C(c1ccc(-c2ccccc2)cc1)N1CCCC1 [Compound 14, 1–(Biphenyl–4–ylcarbonyl)pyrrolidine]	> 100 µM	> 100 µM					
O=C(Cc1ccc(-c2ccccc2)cc1)N1CCCC1 [Compound 15, 1–(4–Phenylbenzyl)–carbonyl pyrrolidine]	> 100 µM	> 100 µM					
O=C(Cc1ccc(OCc2ccccc2)cc1)N1CCCC1 [Compound 17, 1–(4–Benzyloxy)benzyl–carbonyl pyrrolidine]	> 100 µM	> 100 µM					
O=C(CCc1ccc(OCc2ccccc2)cc1)N1CCCC1 [Compound 18, 1–(2–(4–Benzyloxy)phenyl)ethyl–carbonyl pyrrolidine]	> 100 µM	> 100 µM					
O=C(c1ccc2ccccc2c1)N1CCCC1 [Compound 19, 1–(2–Naphthalenyl)carbonyl pyrrolidine]	> 100 µM	> 100 µM					
O=C(Cc1ccc2ccccc2c1)N1CCCC1 [Compound 20, 1–(2–Naphthalenyl)acetyl pyrrolidine]	> 100 µM	> 100 µM					
O=C(NCc1ccc(-c2ccccc2)cc1)N1CCCC1 [Compound 21, N–(Biphenyl–4–ylmethyl)pyrrolidinyl–1–carboxamide]	> 100 µM	> 100 µM	full loss of inhibition	full loss of inhibition			
O=C(OCc1ccc(-c2ccccc2)cc1)N1CCCC1 [Compound 22, Biphenyl–4–ylmethyl pyrrolidinyl–1–carboxylate]	> 100 µM	> 100 µM	full loss of inhibition	full loss of inhibition			
O=C(NCc1ccc(-c2ccccc2)cc1)C1CCCC1 [Compound 23, 4–Phenylbenzyl cyclopentanyl carboxamide]	> 100 µM	> 100 µM	full loss of inhibition	full loss of inhibition	151.8 to 154.6 °C		
O=C(OCc1ccc(-c2ccccc2)cc1)C1CCCC1 [Compound 24, 4–Phenylbenzyl cyclopentanyl carboxylate]	> 100 µM	> 100 µM	full loss of inhibition	full loss of inhibition			
c1ccc(-c2ccc(CCCN3CCCC3)cc2)cc1 [Compound 25, 1–(3–Biphenyl–4–ylpropyl)pyrrolidine]	> 100 µM	> 100 µM	full loss of inhibition	full loss of inhibition			

Further lines, with some results ahead:

IC50 (rat NAAA)	IC50 (rat FAAH)	inhibition ability on NAAA activity (in words) (rat NAAA)	inhibition ability on FAAH activity (in words) (rat FAAH)	melting point	Structure (SMILES)	potency as NAAA inhibitor relative to CCP (NAAA)	mode of NAAA inhibition (NAAA)
25 ± 5.7 µM	21.8 ± 4.45 µM				CCCCCCCCCCCCCCCC(=O)N1CCCC1 [Compound 1, 1–Pentadecanyl–carbonyl pyrrolidine]		
> 100 µM	> 100 µM	complete loss of the inhibition ability	complete loss of the inhibition ability		CCCCCCCCCCCCCCCC(=O)NC1CCCC1 [Compound 2, N–Cyclopentylpalmitamide]		
> 100 µM	> 100 µM	complete loss of the inhibition ability	complete loss of the inhibition ability		CCCCCCCCCCCCCCCC(=O)OC1CCCC1 [Compound 4, Cyclopentyl palmitate]		
> 100 µM	> 100 µM	complete loss of the inhibition ability	complete loss of the inhibition ability		CCCCCCCCCCCCCCCC(=O)OC1CCOC1 (stereo not drawn) [Compound 5, Tetrahydrofuran–3–yl palmitate]		
38.2 ± 3.79 µM	> 100 µM				O=C(CCCCc1ccccc1)N1CCCC1 [Compound 10, 1–(4–Phenylbutanyl)–carbonyl pyrrolidine]		
34.6 ± 4.82 µM	> 100 µM				O=C(CCCCCc1ccccc1)N1CCCC1 [Compound 11, 1–(5–Phenylpentanyl)–carbonyl pyrrolidine]		
12.9 ± 3.47 µM	> 100 µM				O=C(CCCCCCc1ccccc1)N1CCCC1 [Compound 12, 1–(6–Phenylhexanyl)–carbonyl pyrrolidine]		
37.9 ± 4.58 µM	> 100 µM				O=C(CCCCCCCc1ccccc1)N1CCCC1 [Compound 13, 1–(7–Phenylheptanyl)–carbonyl pyrrolidine]		
